Measured values taken from patent US6492124B1, “Trance activated signal transduction pathways in osteoclasts” (The Rockefeller University, priority 1999, dated 2002).

Key:
Type in all cases: cell-based, mouse
NF-κB = NF-κB activation measured by IκB-α phosphorylation/degradation in osteoclasts and dendritic cells (Western blot); conditions: osteoclasts and dendritic cells, beginning at 10 min of TRANCE, coinciding with peak of IκB-α phosphorylation
Protocol: (§1) FIG. 1. […] (A) Mature bone marrow-derived osteoclasts were stimulated for the indicated times with recombinant hCD8-TRANCE (TRANCE; 1 μg/ml). Levels of phosphorylated forms of p44/p42 ERK (p44 ERK^P and p42 ERK^P), IκBα (IκB-α^P) and PKB (PKB^P) in whole cell extracts were determined using phospho-peptide-specific antibodies as indicated in the figure. […] (B) as in (A) except the use of mature bone marrow-derived dendritic cells instead of osteoclasts.
(§2) FIG. 2. […] (A) Osteoclasts were serum starved and then pretreated for 90 min with LY294002 (10 μM), Herbimycin A (Herb. A; 10 μM), and PP1 (10 μM) inhibitors which are specific for PI3-kinase, PTKs, and Src-family kinases, respectively, were stimulated for indicated times with TRANCE (1 μg/ml). Levels of phosphorylated p44/p42 ERK, PKB, and IκB-α were determined as described in FIG. 1. Cells pretreated with vehicle (DMSO) were used as a negative control. (B) as in (A) except the use of mature bone marrow-derived dendritic cells.
(§3) Primary cells and cell lines. […] In brief, bone marrow cells from tibiae and femur of 4-6 week old mice (C57BL/6, Jackson Laboratories) were cultured overnight in media (α-MEM, 10% FCS) in the presence of CSF-1 (5 ng/ml). […] For experiments described in this study, only adherent cells were used after extensive washing. […] After allowing them adhere for 2 hours to a tissue culture dish, contaminating floater cells were washed away and mature dendritic cells were obtained by overnight culture.
(§4) Cell stimulation, cell transfection and in vitro assays. In vitro differentiated mature dendritic cells, macrophages and osteoclasts were washed to remove exogenous growth factors, cultured in media with low serum (0.5% FCS, 6 hours), then stimulated by adding various cytokines in the presence or absence of inhibitors for various times as indicated. After stimulation, the cells were washed in ice-cold PBS, and subjected to Western blot analysis or immunoprecipitation as described below. […]

PKB = PKB activation in osteoclasts (phospho-PKB Western blot)
Protocol: as §1, §2, §3
Cell stimulation, cell transfection and in vitro assays. In vitro differentiated mature dendritic cells, macrophages and osteoclasts were washed to remove exogenous growth factors, cultured in media with low serum (0.5% FCS, 6 hours), then stimulated by adding various cytokines in the presence or absence of inhibitors for various times as indicated. After stimulation, the cells were washed in ice-cold PBS, and subjected to Western blot analysis or immunoprecipitation as described below.
All cells were harvested and lysed in extraction buffer (20 mM HEPES NaOH (pH 7.4), 150 mM NaCl, 1% Triton X-100, 10% glycerol, 10 mM EDTA, 1 mM Na3VO4, 1 mM phenylmethylsulfonylfluoride, 1 μg/ml leupeptin, and 0.1 U of aprotinin per ml) and cleared by centrifugation to obtain whole cell extracts. Protein assays were performed to ensure equal amounts of lysates were used in each sample.

p44/42 ERK = p44/42 ERK phosphorylation in osteoclasts and dendritic cells (Western blot); conditions: after 20 min of TRANCE stimulation
Protocol: FIG. 1. TRANCE activates p44/42 ERK, NF-κB and PKB in osteoclasts and dendritic cells. (A) Mature bone marrow-derived osteoclasts were stimulated for the indicated times with recombinant hCD8-TRANCE (TRANCE; 1 μg/ml). Levels of phosphorylated forms of p44/p42 ERK (p44 ERK^P and p42 ERK^P), IκBα (IκB-α^P) and PKB (PKB^P) in whole cell extracts were determined using phospho-peptide-specific antibodies as indicated in the figure. The membranes were stripped and incubated with antibodies against the p44/p42 ERK, IκB-α, and PKB as indicated to confirm that similar amounts of whole cell extracts were analyzed. Note the decrease of IκB-α after 10 min of treatment due to its degradation. (B) as in (A) except the use of mature bone marrow-derived dendritic cells instead of osteoclasts.
as §4

## TNF-related activation-induced cytokine [TRANCE]
NF-κB
  total cellular IκB-α: decrease
PKB; TRANCE 5 μg/ml, 10 min
  activation of PKB in c-Src−/− osteoclasts compared with wild-type: substantially reduced
PKB; osteoclasts, TRANCE stimulation
  time by which PKB activity subsided: ≤ 60 min
PKB; osteoclasts, after 5 minutes, TRANCE 1 μg/ml
  phosphorylated form of PKB upon TRANCE stimulation: increase
p44/42 ERK
  ERK phosphorylation: transiently induced
